From patent US11389415B2, “Methods of regulating cannabinoid receptor activity-related disorders and diseases” (The United States of America as represented by the …, priority 2012, dated 2022)
Where two headings read alike, the source gives them in different places.

Key:
HEP3B [1] = test: tumor cell growth (CTG), HEP3B
A549 = test: tumor cell growth, A549; conditions: read-out: IC50 (uM), A549 (NSCLC); Table 6
U251 = test: tumor cell growth, U251; conditions: read-out: IC50 (uM), U251 (CNS); Table 6
HT29 [2] = test: Thymidine (Thy) 96 well, HT29; conditions: read-out: IC50 (uM), HT29 (Colon Cancer)
U118 = test: tumor cell growth, U118; conditions: read-out: IC50 (uM), U118 (CNS); Table 6
HEPG2 = test: tumor cell growth, HEPG2; conditions: read-out: IC50 (uM), HEPG2 (Liver C); Table 6
GL261 = test: tumor cell growth, GL261; conditions: read-out: IC50 (uM), GL261 (CNS); Table 6
HT29 [3] = test: tumor cell growth (CTG), HT29
LN229 = test: [3H]-Thymidine incorporation in 96-well plates (Thy), LN229; conditions: read-out: IC50 (uM), LN229 (CNS Cancer)
NCIH460 = test: Thymidine (Thy) 96 well, NCIH460; conditions: read-out: IC50 (uM), NCIH460 (NSCLC)
MCF7 = test: tumor cell growth, MCF7; conditions: read-out: IC50 (uM), MCF7 (Breast C); Table 6
PANC-1 = test: tumor cell growth, PANC-1; conditions: read-out: IC50 (uM), PANC-1 (Pancreatic C); Table 6
PC3 [4] = test: tumor cell growth (CTG), PC3
LN-229 = test: tumor cell growth (CTG), LN-229 / LN229
MDAMB231 = test: tumor cell growth, MDAMB231; conditions: read-out: IC50 (uM), MDAMB231 (Breast C); Table 6
LN-18 = test: tumor cell growth, LN-18; conditions: read-out: IC50 (uM), LN-18 (CNS); Table 6
PC3 [5] = test: [3H]-Thymidine incorporation in 96-well plates (Thy), PC3; conditions: read-out: IC50 (uM), PC3 (Prostrate Cancer)
Du-145 = test: tumor cell growth, Du-145; conditions: read-out: IC50 (uM), Du-145 (Prostate C); Table 6
HEP3B [6] = test: [3H]-Thymidine incorporation in 96-well plates (Thy), HEP3B; conditions: read-out: IC50 (uM), HEP3B (Liver Cancer)
H460 = test: tumor cell growth (CTG), H460 / NCIH460
HCT116 [7] = test: tumor cell growth (CTG), HCT116
A172 = test: tumor cell growth, A172; conditions: read-out: IC50 (uM), A172 (CNS); Table 6
HCT116 [8] = test: Thymidine (Thy) 96 well, HCT116; conditions: read-out: IC50 (uM), HCT116 (Colon Cancer)
U87 = test: tumor cell growth, U87; conditions: read-out: IC50 (uM), U87 (CNS); Table 6

## COc1ccc(C[C@@H](C)NC[C@H](O)c2cc(O)cc(O)c2)c2ccccc12 [(R,R′)-MNF, (R,R′)-4′-methoxy-1-naphthylfenoterol]
HEP3B [1]; read-out: IC50 (uM), HEP3B (Liver C), Table 6
  IC50: 14.7 µM
HEP3B [1]; read-out: IC50 (uM), HEP3B (Liver Cancer), 96 well CTG 1 day treatment
  IC50: 28.3 µM
HEP3B [1]; read-out: IC50 (uM), HEP3B (Liver Cancer), 96 well CTG 2 days treatment
  IC50: 13.5 µM
HEP3B [1]; read-out: IC50 (uM), HEP3B (Liver Cancer), 384well CTG 3 days treatment −1
  IC50: 14.7 µM
HEP3B [1]; read-out: IC50 (uM), HEP3B (Liver Cancer), 384well CTG 3 days treatment −2
  IC50: 12.1 µM
A549
  IC50: 23.1 µM
U251
  IC50: 26.7 µM
HT29 [2]; 96 well Thy 2 days treatment
  IC50: 19.6 µM
HT29 [2]; 96 well Tye 1 day treatment
  IC50: 13 µM
U118
  IC50: 37 µM
HEPG2
  IC50: 28.8 µM
GL261
  IC50: 21.3 µM
HT29 [3]; read-out: IC50 (uM), HT29 (Colon C), Table 6
  IC50: 10.7 µM
HT29 [3]; read-out: IC50 (uM), HT29 (Colon Cancer), 96 well CTG 1 day treatment
  IC50: 30.4 µM
HT29 [3]; read-out: IC50 (uM), HT29 (Colon Cancer), 96 well CTG 2 days treatment
  IC50: 11.7 µM
HT29 [3]; read-out: IC50 (uM), HT29 (Colon Cancer), 384well CTG 3 days treatment −1
  IC50: 10.7 µM
LN229; 96 well Thy 2 days treatment
  IC50: 10.4 µM
LN229; 96 well Tye 1 day treatment
  IC50: 9.64 µM
NCIH460; 96 well Thy 2 days treatment
  IC50: 21 µM
NCIH460; 96 well Tye 1 day treatment
  IC50: 25.1 µM
MCF7
  IC50: 37.2 µM
PANC-1
  IC50: 33.4 µM
PC3 [4]; read-out: IC50 (uM), PC3 (Prostate C), Table 6
  IC50: 28.1 µM
PC3 [4]; read-out: IC50 (uM), PC3 (Prostrate Cancer), 96 well CTG 1 day treatment
  IC50: 34.5 µM
PC3 [4]; read-out: IC50 (uM), PC3 (Prostrate Cancer), 96 well CTG 2 days treatment
  IC50: 20.4 µM
PC3 [4]; read-out: IC50 (uM), PC3 (Prostrate Cancer), 384well CTG 3 days treatment −1
  IC50: 28.1 µM
LN-229; read-out: IC50 (uM), LN229 (CNS Cancer), 96 well CTG 1 day treatment
  IC50: 29.3 µM
LN-229; read-out: IC50 (uM), LN229 (CNS Cancer), 96 well CTG 2 days treatment
  IC50: 15.7 µM
LN-229; read-out: IC50 (uM), LN229 (CNS Cancer), 384well CTG 3 days treatment −1
  IC50: 26.8 µM
LN-229; read-out: IC50 (uM), LN-229 (CNS), Table 6
  IC50: 26.8 µM
MDAMB231
  IC50: 33.2 µM
LN-18
  IC50: 29.7 µM
PC3 [5]; 96 well Thy 2 days treatment
  IC50: 10.8 µM
PC3 [5]; 96 well Tye 1 day treatment
  IC50: 11 µM
Du-145
  IC50: 34.8 µM
HEP3B [6]; 96 well Thy 2 days treatment
  IC50: 10 µM
HEP3B [6]; 96 well Tye 1 day treatment
  IC50: 10.7 µM
H460; read-out: IC50 (uM), H460 (NSCLC), Table 6
  IC50: 11.6 µM
H460; read-out: IC50 (uM), NCIH460 (NSCLC), 96 well CTG 1 day treatment
  IC50: 38.9 µM
H460; read-out: IC50 (uM), NCIH460 (NSCLC), 96 well CTG 2 days treatment
  IC50: 15.4 µM
H460; read-out: IC50 (uM), NCIH460 (NSCLC), 384well CTG 3 days treatment −1
  IC50: 11.6 µM
H460; read-out: IC50 (uM), NCIH460 (NSCLC), 384well CTG 3 days treatment −2
  IC50: 17.7 µM
HCT116 [7]; read-out: IC50 (uM), HCT116 (Colon C), Table 6
  IC50: 12.9 µM
HCT116 [7]; read-out: IC50 (uM), HCT116 (Colon Cancer), 96 well CTG 1 day treatment
  IC50: 19 µM
HCT116 [7]; read-out: IC50 (uM), HCT116 (Colon Cancer), 96 well CTG 2 days treatment
  IC50: 10.5 µM
HCT116 [7]; read-out: IC50 (uM), HCT116 (Colon Cancer), 384well CTG 3 days treatment −1
  IC50: 12.9 µM
HCT116 [7]; read-out: IC50 (uM), HCT116 (Colon Cancer), 384well CTG 3 days treatment −2
  IC50: 12.2 µM
A172
  IC50: 30.5 µM
HCT116 [8]; 96 well Thy 2 days treatment
  IC50: 11 µM
HCT116 [8]; 96 well Tye 1 day treatment
  IC50: 23.8 µM
U87
  IC50: 25.7 µM
